Assay results taken from PubChem BioAssay (NCI).
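Compound exposure: 48 hours, 5 concentrations, 96-well plates. TGI marks complete inhibition of growth.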

Assays:
Assay in all cases: DTP human tumour cell line panel, 48 h
[1] = tested on: 786-0 renal
[2] = tested on: A549 NSCLC
[3] = tested on: ACHN renal
[4] = tested on: CAKI-1 renal
[5] = tested on: CCRF-CEM leukemia
[6] = tested on: COLO 205 colon
[7] = tested on: DLD-1 colon
[8] = tested on: DMS 114 small cell lung
[9] = tested on: DMS 273 small cell lung
[10] = tested on: EKVX NSCLC
[11] = tested on: HCC-2998 colon
[12] = tested on: HCT-116 colon
[13] = tested on: HCT-15 colon
[14] = tested on: HL-60(TB) leukemia
[15] = tested on: HOP-18 NSCLC
[16] = tested on: HOP-62 NSCLC
[17] = tested on: HOP-92 NSCLC
[18] = tested on: HT29 colon
[19] = tested on: IGROV1 ovarian
[20] = tested on: K-562 leukemia
[21] = tested on: KM12 colon
[22] = tested on: KM20L2 colon
[23] = tested on: LOX IMVI melanoma
[24] = tested on: LXFL 529 NSCLC
[25] = tested on: M14 melanoma
[26] = tested on: M19-MEL melanoma
[27] = tested on: MALME-3M melanoma
[28] = tested on: MOLT-4 leukemia
[29] = tested on: NCI-H226 lung
[30] = tested on: NCI-H23 lung
[31] = tested on: NCI-H460 lung
[32] = tested on: NCI-H522 lung
[33] = tested on: OVCAR-3 ovarian
[34] = tested on: OVCAR-4 ovarian
[35] = tested on: OVCAR-5 ovarian
[36] = tested on: OVCAR-8 ovarian
[37] = tested on: RPMI-8226 leukemia
[38] = tested on: RXF-631 renal
[39] = tested on: SF-295 CNS
[40] = tested on: SF-539 CNS
[41] = tested on: SK-MEL-2 melanoma
[42] = tested on: SK-MEL-28 melanoma
[43] = tested on: SK-MEL-5 melanoma
[44] = tested on: SK-OV-3 ovarian
[45] = tested on: SN12C renal
[46] = tested on: SNB-19 CNS
[47] = tested on: SNB-75 CNS
[48] = tested on: SNB-78 CNS
[49] = tested on: SR leukemia
[50] = tested on: SW-620 colon
[51] = tested on: TK-10 renal
[52] = tested on: U251 CNS
[53] = tested on: UACC-257 melanoma
[54] = tested on: UACC-62 melanoma
[55] = tested on: UO-31 renal
[56] = tested on: XF 498 CNS
[57] = tested on: A498 renal
[58] = tested on: RXF 393 renal
[59] = tested on: SF-268 CNS

Measured: TGI

O=C(O)CNc1cc(-c2ccccc2)nc(NCC(=O)O)n1
not listed: [57] | [58] | [59]
> 100 µM: all other assays above

O=C(Nc1nc2ncn(CCI)c2c(=O)[nH]1)c1ccccc1
50.3 µM: [59]
46.4 µM: [47]
81 µM: [17]
> 64.6 µM: [40]
> 92.3 µM: [41]
90.5 µM: [44]
> 62.2 µM: [36]
83.3 µM: [57]
> 96.5 µM: [52]
> 87.4 µM: [39]
59.3 µM: [58]
> 81.1 µM: [16]
77.4 µM: [29]
> 61.2 µM: [56]
not listed: [7] | [8]
> 100 µM: all other assays above
